For experiment [1], the target named is T1, recombinant human Lp-PLA2 (Homo sapiens, UniProt Q13093).
T1 sequence (Q13093 22-441): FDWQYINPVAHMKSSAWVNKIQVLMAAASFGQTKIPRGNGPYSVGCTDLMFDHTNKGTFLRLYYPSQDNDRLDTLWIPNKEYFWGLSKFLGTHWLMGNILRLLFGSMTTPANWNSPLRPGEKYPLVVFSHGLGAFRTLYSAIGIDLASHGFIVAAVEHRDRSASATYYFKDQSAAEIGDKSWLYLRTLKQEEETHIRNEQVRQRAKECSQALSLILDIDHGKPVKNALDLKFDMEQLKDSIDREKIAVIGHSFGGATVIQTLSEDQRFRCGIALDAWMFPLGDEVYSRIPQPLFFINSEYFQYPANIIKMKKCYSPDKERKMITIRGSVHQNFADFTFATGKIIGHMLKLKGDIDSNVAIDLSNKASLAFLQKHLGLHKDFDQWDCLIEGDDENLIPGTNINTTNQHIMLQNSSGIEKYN
Nature of the experiment: Recombinant human Lp-PLA2 assay (rhLp-PLA2, PED6 assay). The experiment is classed as biochemical. The text has this:
(1) Recombinant Human Lp-PLA2 Assay (rhLp-PLA2) (Also Referred to as “PED6” Assay)
N-((6-(2,4-dinitrophenyl)amino)-hexanoyl)-2-(4,4-difluoro-5,7-dimethyl-4-bora-3a,4a-diaza-s-indacene-3-pentanoyl)-1-hexadecanoyl-sn-glycero-3-phosphoethanolamine, triethylammonium salt (PED6) is a commercially available fluorescently-labelled phospholipid, which is commercially available from Molecular Probes. There is a quenching […] position and a Bodipy fluorescein (FL) group in the sn2 position.
The PED6 assay was run as an unquenched 10 μL assay. Compounds source plate was prepared by making 1:3 (by volume) serial dilution of the compounds into pure DMSO on 384-well microplate. […] 5 μL of recombinant human Lp-PLA2 enzyme (2 nM rhLp-PLA2 in assay buffer of 50 mM HEPES, pH7.4, 150 mM NaCl, 1 mM CHAPS) was added to each well of the plate with compounds. Plates were centrifuged for 10 sec at 500 rpm. […] Plates were centrifuged for 10 sec at 500 rpm. Plate was covered to protect from light and incubated for 20 min at room temperature. […] PIC50 data, curve and QC analysis was conducted by using XL fit module in Excel.

Experiment [2] addresses T2, Lp-PLA2 from plasma (pooled human plasma) (Homo sapiens, UniProt Q13093).
T2 construct: 8 μL pooled human plasma; from tissue; host or cells: pooled human plasma
T2 sequence (Q13093 22-441): T1 sequence (Q13093 22-441)
Description: Lp-PLA2 human plasma assay (Thio-PAF assay). The format is biochemical. The note with it: text thresholds, read-out: pIC50 values in the thio-PAF assay (converted). From the text:
(3) Lipoprotein-Associated Phospholipase A2 (Lp-PLA2) Human Plasma Assay (Also Referred to as “Thio-PAF Assay”)
The human plasma assay utilizes a thioester analog of PAF (phosphatidylcholine), where hydrolysis yields to the formation of a phospholipid containing a free thiol group. The amount of thiol is quantitated continuously by reacting with CPM (7-diethylamino-3-(4′-maleimidylphenyl)-4-methylcoumarin), a maleimide which increases in fluoresence after Michael addition of thiols. This assay may detect the activity of Lp-PLA2 from plasma, as determined by specific inhibition by Lp-PLA2 inhibitors.
The thio-PAF assay was run as a quenched 15 μL assay. Compounds source plate was prepared by making 1:3 (by volume) serial dilution of the compounds into pure DMSO on 384-well microplate. 0.01 μL of compounds on compound source plate were transferred to 384 well Greiner 784076 (black) low-volume plates by ECHO liquid dispenser. 8 μL pooled human plasma, which was previously aliquoted and frozen, was added. Plates were centrifuged for 10 sec at 500 rpm. After 30 minutes preincubation, 2 μL of substrate (2.5 mM thio-PAF, 3.2 mM NEM (N-ethylmaleimide) [made fresh daily in DMSO], and 32 μM CPM [from a DMSO stock] in assay buffer of 50 mM HEPES, pH7.4, 150 mM NaCl, 1 mM CHAPS was added to 384 well Greiner 784076 (black) low-volume plates by BRAVO liquid handling station. Plates were centrifuged for 10 sec at 500 rpm. Plate was covered to protect from light and incubated for 2 min at room temperature. Reaction was quenched with 5 μL of 5% aqueous trifluoroacetic acid (TFA). Plates were covered to protect from light and incubated for 40 min at room temperature. Plates were read at ex: 380/em: 485 using-Envision microplate reader. PIC50 data, curve and QC analysis was conducted by using XLFit module in Excel.

Where [3] appears, read: text thresholds, upper limit for pIC50 in this assay is 9.3, read-out: pIC50 values in the PED6 assay (converted).
Where [4] appears, read: upper limit for pIC50 obtained in this PED6 assay is 9.3, read-out: rhLp-PLA2 (PED6 assay) (pIC50) (converted).

Counter-ions that a name gives are not always drawn. Like-named read-outs stand apart in the source and are kept apart here.

On to `COc1ncc(Cc2cn(C)c(SCc3ccc(Oc4ccc(Cl)c(C(F)(F)F)c4)cc3)nc2=O)cn1` [E75, 2-{[(4-{[4-chloro-3-(trifluoromethyl)phenyl]oxy}phenyl)methyl]thio}-1-methyl-5-{[2-(methyloxy)-5-pyrimidinyl]methyl}-4(1H)-pyrimidinone], for which the IC50 in experiment [1] (setting [3]) is ≤ 1 nM; in experiment [2], ≤ 100 nM.
In the case of `COc1ncc(Cc2c[nH]c(SCc3ccc(Oc4ccc(Cl)c(C(F)(F)F)c4)c(C#N)c3)nc2=O)cn1` [E84, 2-{[4-chloro-3-(trifluoromethyl)phenyl]oxy}-5-{[(5-{[2-(methyloxy)-5-pyrimidinyl]methyl}-4-oxo-1,4-dihydro-2-pyrimidinyl)thio]methyl}benzonitrile], the figures for the IC50 in experiment [1] (setting [3]) and in experiment [2] were ≤ 1 nM and ≤ 1000 nM, respectively.
As for `COc1ncc(Cc2cn(C)c(SCc3ccc(Oc4ccc(Cl)c(C(F)(F)F)c4)c(C#N)c3)nc2=O)cn1` [E85, 2-{[4-chloro-3-(trifluoromethyl)phenyl]oxy}-5-{[(1-methyl-5-{[2-(methyloxy)-5-pyrimidinyl]methyl}-4-oxo-1,4-dihydro-2-pyrimidinyl)thio]methyl}benzonitrile], the results for the IC50 in experiment [1] (setting [3]) and in experiment [2] were ≤ 1 nM and ≤ 100 nM, respectively.
Regarding `N#Cc1cc(CSc2nc(=O)c(Cc3cncnc3)c[nH]2)ccc1Oc1ccc(F)c(C(F)(F)F)c1` [E87, 2-{[4-fluoro-3-(trifluoromethyl)phenyl]oxy}-5-({[4-oxo-5-(5-pyrimidinylmethyl)-1,4-dihydro-2-pyrimidinyl]thio}methyl)benzonitrile], the IC50 in experiment [1] (setting [3]) is ≤ 1 nM; in experiment [2], ≤ 1000 nM.
`COc1ncc(Cc2cn(C)c(SCc3ccc(Oc4ccc(F)c(C(F)(F)F)c4)c(C#N)c3)nc2=O)cn1` [E90, 2-{[4-fluoro-3-(trifluoromethyl)phenyl]oxy}-5-{[(1-methyl-5-{[2-(methyloxy)-5-pyrimidinyl]methyl}-4-oxo-1,4-dihydro-2-pyrimidinyl)thio]methyl}benzonitrile]: the values for the IC50 in experiment [1] (setting [3]) and in experiment [2] were ≤ 1 nM and ≤ 100 nM, respectively.
For `Cn1cc(Cc2cn(C)c(SCc3ccc(Oc4cc(Cl)ccn4)cc3)nc2=O)cn1` [E93, 2-[({4-[(4-chloro-2-pyridinyl)oxy]phenyl}methyl)thio]-1-methyl-5-[(1-methyl-1H-pyrazol-4-yl)methyl]-4(1H)-pyrimidinone], the IC50 in experiment [1] (setting [3]) is ≤ 1 nM; in experiment [2] it was ≤ 100 nM.
In the same order, the values of `Cn1cc(Cc2cn(C)c(SCc3ccc(Oc4cccc(C(F)(F)F)c4)c(C#N)c3)nc2=O)cn1` [E95, 5-(((1-methyl-5-((1-methyl-1H-pyrazol-4-yl)methyl)-4-oxo-1,4-dihydropyrimidin-2-yl)thio)methyl)-2-(3-(trifluoromethyl)phenoxy)benzonitrile, trifluoroacetic acid salt] are ≤ 1 nM and ≤ 100 nM.
As to `Cn1cc(Cc2cncnc2)c(=O)nc1SCc1ccc(Oc2cccc(C(F)(F)F)c2)c(C#N)c1` [E97, 5-({[1-methyl-4-oxo-5-(5-pyrimidinylmethyl)-1,4-dihydro-2-pyrimidinyl]thio}methyl)-2-{[3-(trifluoromethyl)phenyl]oxy}benzonitrile], the values for the IC50 in experiment [1] (setting [3]) and in experiment [2] were ≤ 1 nM and ≤ 100 nM, respectively.
Turning to `CCc1cn(CC)c(OCCc2ccc(Oc3ccc(Cl)c(C(F)(F)F)c3)cc2)nc1=O` [E130, 2-{[2-(4-{[4-chloro-3-(trifluoromethyl)phenyl]oxy}phenyl)ethyl]oxy}-1,5-diethyl-4(1H)-pyrimidinone], the IC50 in experiment [1] (setting [4]) was 2.51 nM; in experiment [2], ≤ 1000 nM.
With `Cc1noc(Cc2c[nH]c(OCCc3ccc(Oc4ccc(Cl)c(C(F)(F)F)c4)cc3)nc2=O)n1` [E133, 2-{[2-(4-{[4-chloro-3-(trifluoromethyl)phenyl]oxy}phenyl)ethyl]oxy}-5-[(3-methyl-1,2,4-oxadiazol-5-yl)methyl]-4(1H)-pyrimidinone], the IC50 in experiment [1] (setting [3]) was ≤ 10 nM; in experiment [1] (setting [4]), 3.16 nM; in experiment [2], ≤ 1000 nM.
